Measured values: patent US20120016010A1, “RNA Interference Mediated Inhibition of BTB and CNC Homology 1, Basic Leucine Zipper Transcription Factor 1 (BACH1) Gene Expression Using Short Interfering Nucleic Acid (siNA)” (Merck Sharp & Dohme Corp, priority 2009, published 2012)

How the values were obtained:
Bach1 mRNA = test: Initial screen: Bach1 mRNA knock-down in human A549 cells (96-well transfection, quantitative RT-PCR); assay type: cell-based; conditions: for % KD: Bach1 mRNA, 10 nM siNA, human A549 cells, n = 2, mean ± S.D., normalized to GAPDH and non-targeting control, 24 hrs post-transfection; for % KD Bach1: Table 5, Bach1 mRNA screening data, A549 cells
HMOX1 mRNA = test: HMOX1 (HO-1) mRNA upregulation in human bronchial epithelial cells (NHBE); assay type: cell-based; conditions: 48 hours post transfection, mean of 3 donors
Method: Human Bronchial Epithelial cells (NHBE cells) obtained from Lonza (Cat. No. CC-2540) were grown at 37deg in the presence of 5% CO2 and cultured in BEBM basal medium (Lonza, Cat. No. CC-3171) on Biocoat Collagen1 coated flasks (Becton Dickinson). NHBE cells were plated in collagen 1 coated plates and cultured in appropriate culture media. The cells were cultured for 24 hours after plating at 37 degrees in the presence of 5% CO2. siNAs were diluted in OptiMEM 1 to 1 uM and the transfection agent to 25 ug/ml. For formulation of the siNAs equal volumes of the diluted siNA and delivery lipid were combined and incubated for 20 minutes at room temperature. Cells were meanwhile trypsinised and resuspended in antibiotic free BEBM media at 150,000 cells/ml. 20 ul of the formulated siNA and 80 ul of BEBM media was added per well of a 96 well plate (6 replicates/data point/siNA concentration) so as to give a nine point dose range of the siNAs (100 nM, 30 nM, 10 nM, 3 nM, 1 nM, 0.3 nM, 0.1 nM, 0.03 nM, 0.01 nM). The time of incubation with the transfection-siNA complexes were 48 hours with one change of media at 24 hours. Total RNA was isolated from the cells in the 96-well plate format using the Automated SV96 Total RNA Isolation System (Promega) according to the manufacturer's instructions. The Biomek 2000 Laboratory Automation Workstation (Beckman Coulter) was used to apply the transfected cell lysates to a silica membrane. RNase-Free DNase I was then applied directly to the silica membrane to digest contaminating genomic DNA. The bound total RNA was further purified from contaminating salts, proteins and cellular impurities by simple washing steps. Finally, total RNA was eluted from the membrane by the addition of Nuclease-Free Water. A series of probes and primers were used for the detection of mRNA transcripts of Bach1, OAS1, IL8 and GAPDH (as control/normalisation) in the human cell lines. The assays were performed on an ABI 7900HT instrument according to the manufacturer's instructions. Primer Probe sets used: With Taqman data critical threshold values (Ct) were converted to copy numbers corresponding to the particular gene analysed in each well of the 384 well plate. Six identical wells were prepared in each plate for a given treatment. […] Relative abundance (aka relative expression) of a gene was determined by dividing the mean copy number of that gene with its GAPDH counterpart in that particular sample. EC50 values were calculated from the data using sigma plot. All calculations of the efficacy and potency of the siNAs were done relative to the non-targeting control siNA. Percentage knockdown was compared between the four lead siNA's. The data was analysed using an ANOVA test and then the p-values were corrected for multiple comparisons using the False Discovery Rate correction (FDR).

| Substance | % KD (Bach1 mRNA) [%] | % KD Bach1 (Bach1 mRNA) [%] | Maximum HMOX1 upregulation (HMOX1 mRNA) [%] | EC50 (HMOX1 mRNA) [µM] |
| --- | --- | --- | --- | --- |
| 29947-DC (sense GGAAUCCUGCUUUCAGUUUTT; antisense AAACUGAAAGCAGGAUUCCUU; inverted abasic caps (B), 2'-modified nucleotides, further chemistry not given here) | 83.4 ± 6.9 | 83.4 ± 6.9 | 1566 | – |
| 29956-DC (sense GUCUGAGUGUCCGUGGUUATT; antisense UAACCACGGACACUCAGACUU; inverted abasic caps (B), 2'-modified nucleotides, further chemistry not given here) | 75.8 ± 7.7 | 75.8 ± 7.7 | 2416 | 0.0331 |
| 29957-DC (sense GCAGUUACUUCCACUCAAGTT; antisense CUUGAGUGGAAGUAACUGCUU; inverted abasic end caps, TT overhangs, modified nucleotides, further chemistry not given here) | 84.6 ± 5.4 | 84.6 ± 5.4 | 290 | 0.0298 |
| 29961-DC (sense CUACACUGCUAAACUGAUUTT; antisense AAUCAGUUUAGCAGUGUAGUU; inverted abasic end caps, TT overhangs, modified nucleotides, further chemistry not given here) | 90 ± 1.3 | 90 ± 1.3 | 10266 | 0.0504 |
| 29964-DC (sense GAUUUGCAGGUGAUGUUAATT; antisense UUAACAUCACCUGCAAAUCUU; inverted abasic end caps, TT overhangs, modified nucleotides, further chemistry not given here) | 90.1 ± 0.8 | 90.1 ± 0.8 | 4800 | 0.0303 |
| 29984-DC (sense GUUAAAGGAUUUGAACCUUTT; antisense AAGGUUCAAAUCCUUUAACUU; inverted abasic end caps, TT overhangs, modified nucleotides, further chemistry not given here) | 66.2 ± 15.3 | – | 153 | – |
| 29988-DC (sense AUUUGAACCUUUAAUUCAGTT; antisense CUGAAUUAAAGGUUCAAAUUU; inverted abasic end caps, TT overhangs, modified nucleotides, further chemistry not given here) | 86.2 ± 3.1 | 86.2 ± 3.1 | 550 | 0.0345 |
